Assay results: the supplement of paper PMC10307832

Legend:
Test in all cases: relative viability (nuclei count vs DMSO), 5 days (fraction); higher = more cells survive
Bleomycin + OSI-027 = compound: CC1=C(N=C(N=C1N)[C@H](CC(=O)N)NC[C@@H](C(=O)N)N)C(=O)N[C@@H]([C@H](C2=CN=CN2)OC3C(C(C(C(O3)CO)O)O)OC4C(C(C(C(O4)CO)O)OC(=O)N)O)C(=O)N[C@H](C)[C@H]([C@H](C)C(=O)N[C@@H]([C@@H](C)O)C(=O)NCCC5=NC(=CS5)C6=NC(=CS6)C(=O)NCCC[S+](C)C)O [Bleomycin] + COc1cccc2cc(-c3nc([C@H]4CC[C@H](C(=O)O)CC4)n4ncnc(N)c34)[nH]c12 [OSI-027] (partner 0.5 µM); conditions: main component drawn
Outline: (§1)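 After 5 days of treatment, lung cancer cells in 1536-well plates were fixed and stained in a single step (final 0.05% Triton X-100, 1% formaldehyde, 1 ug/ml Hoechst) and their nuclei counted on 4× images. Treatment had been applied by pin tool the day after seeding as one drug alone or as a fixed anchor-drug dose with five library-drug doses (not always all listed) in √10 steps. Relative viability is the nuclei count of treated wells divided by that of vehicle wells, and values are medians of duplicate plates.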

Bleomycin + Linsitinib = compound: CC1=C(N=C(N=C1N)[C@H](CC(=O)N)NC[C@@H](C(=O)N)N)C(=O)N[C@@H]([C@H](C2=CN=CN2)OC3C(C(C(C(O3)CO)O)O)OC4C(C(C(C(O4)CO)O)OC(=O)N)O)C(=O)N[C@H](C)[C@H]([C@H](C)C(=O)N[C@@H]([C@@H](C)O)C(=O)NCCC5=NC(=CS5)C6=NC(=CS6)C(=O)NCCC[S+](C)C)O [Bleomycin] + C[C@]1(O)C[C@@H](c2nc(-c3ccc4ccc(-c5ccccc5)nc4c3)c3c(N)nccn32)C1 [Linsitinib] (partner 1 µM); conditions: main component drawn
Outline: as §1

Bleomycin + Phenformin = compound: CC1=C(N=C(N=C1N)[C@H](CC(=O)N)NC[C@@H](C(=O)N)N)C(=O)N[C@@H]([C@H](C2=CN=CN2)OC3C(C(C(C(O3)CO)O)O)OC4C(C(C(C(O4)CO)O)OC(=O)N)O)C(=O)N[C@H](C)[C@H]([C@H](C)C(=O)N[C@@H]([C@@H](C)O)C(=O)NCCC5=NC(=CS5)C6=NC(=CS6)C(=O)NCCC[S+](C)C)O [Bleomycin] + N=C(N)NC(=N)NCCc1ccccc1 [Phenformin] (partner 250 µM); conditions: main component drawn
Outline: as §1

Etoposide + Luminespib = compound: COc1cc([C@@H]2c3cc4c(cc3[C@@H](O[C@@H]3O[C@@H]5CO[C@@H](C)O[C@H]5[C@H](O)[C@H]3O)[C@H]3COC(=O)[C@H]23)OCO4)cc(OC)c1O [Etoposide] + CCNC(=O)c1noc(-c2cc(C(C)C)c(O)cc2O)c1-c1ccc(CN2CCOCC2)cc1 [Luminespib] (partner 0.01 µM)
Outline: as §1

Row | Cell Line | relative viability (Bleomycin + OSI-027; first compound 0.01 µM) | relative viability (Bleomycin + OSI-027; first compound 0.03162 µM) | relative viability (Bleomycin + OSI-027; first compound 0.1 µM) | relative viability (Bleomycin + OSI-027; first compound 0.3162 µM) | relative viability (Bleomycin + OSI-027; first compound 1 µM) | relative viability (Bleomycin + Linsitinib; first compound 0.01 µM) | relative viability (Bleomycin + Linsitinib; first compound 0.03162 µM) | relative viability (Bleomycin + Linsitinib; first compound 0.1 µM) | relative viability (Bleomycin + Linsitinib; first compound 0.3162 µM) | relative viability (Bleomycin + Linsitinib; first compound 1 µM) | relative viability (Bleomycin + Phenformin; first compound 0.01 µM) | relative viability (Bleomycin + Phenformin; first compound 0.03162 µM) | relative viability (Bleomycin + Phenformin; first compound 0.1 µM) | relative viability (Bleomycin + Phenformin; first compound 0.3162 µM) | relative viability (Bleomycin + Phenformin; first compound 1 µM) | relative viability (Etoposide + Luminespib; first compound 0.01 µM) | relative viability (Etoposide + Luminespib; first compound 0.03162 µM) | relative viability (Etoposide + Luminespib; first compound 0.1 µM) | relative viability (Etoposide + Luminespib; first compound 0.3162 µM) | relative viability (Etoposide + Luminespib; first compound 1 µM)
1 | NCI-H322M | 0.399 | 0.535 | 0.513 | 0.464 | 0.421 | 0.961 | 1.01 | 0.95 | 1.1 | 0.684 | 0.655 | 0.74 | 0.72 | 0.377 | 0.353 | 0.789 | 0.846 | 0.553 | 0.486 | 0.392
2 | NCI-H520 | 0.272 | 0.299 | 0.21 | 0.208 | 0.198 | 0.949 | 0.987 | 0.973 | 0.687 | 0.566 | 0.315 | 0.577 | 0.4 | 0.279 | 0.35 | 0.204 | 0.198 | – | 0.218 | 0.219
3 | NCI-H661 | 0.632 | 0.683 | 0.4 | 0.23 | 0.235 | 0.563 | 0.423 | 0.312 | 0.221 | 0.217 | 0.272 | 0.239 | 0.232 | 0.216 | 0.215 | 0.956 | 0.901 | 0.898 | 0.553 | 0.435
4 | NCI-H727 | 0.731 | 0.685 | 0.637 | – | 0.528 | 0.293 | 0.251 | 0.33 | 0.183 | 0.34 | 0.65 | 0.621 | 0.469 | – | 0.502 | 0.53 | 0.294 | – | 0.3 | 0.418
5 | NCI-H1793 | 0.271 | 0.311 | 0.249 | 0.156 | 0.138 | 0.943 | 0.762 | 0.719 | 0.276 | 0.249 | 0.389 | 0.417 | 0.349 | 0.211 | 0.131 | 0.203 | 0.184 | – | 0.181 | 0.169
6 | NCI-H1734 | 0.565 | 0.544 | 0.465 | 0.254 | 0.226 | 0.73 | 0.669 | 0.553 | 0.311 | 0.227 | 0.327 | 0.28 | 0.28 | 0.177 | 0.131 | 0.226 | 0.192 | 0.182 | 0.185 | 0.168
7 | LXF-289 | 0.647 | 0.781 | 0.693 | 0.315 | 0.169 | 0.899 | 0.91 | 0.839 | 0.389 | 0.186 | 0.471 | 0.477 | 0.446 | 0.174 | 0.0704 | 0.569 | 0.861 | 0.79 | 0.367 | 0.129
8 | H3255 | 0.524 | 0.6 | 0.504 | 0.53 | 0.429 | 0.702 | 0.879 | 0.902 | 0.538 | 0.387 | 0.35 | 0.372 | 0.367 | 0.301 | 0.301 | 0.877 | 0.829 | 0.576 | 0.703 | 0.379
9 | 201T | 0.649 | 0.77 | 0.634 | 0.407 | 0.207 | 0.959 | 1.05 | 1.05 | 1 | 0.83 | 0.447 | 0.436 | 0.47 | 0.361 | 0.364 | 0.839 | 1.11 | 0.952 | 0.754 | 0.539
10 | NCI-H2228 | 0.473 | 0.467 | 0.534 | 0.264 | 0.164 | 0.675 | 0.647 | 0.714 | 0.559 | 0.4 | 0.314 | 0.312 | 0.301 | 0.185 | 0.147 | 0.159 | 0.141 | 0.154 | 0.117 | 0.147
11 | HOP-62 | 0.383 | 0.498 | 0.333 | 0.184 | 0.127 | 0.485 | 0.554 | 0.335 | 0.135 | 0.112 | 0.395 | 0.447 | 0.239 | 0.185 | 0.105 | 0.855 | 0.977 | 0.866 | 0.638 | 0.307
12 | CAL-12T | 0.551 | 0.465 | 0.389 | 0.21 | 0.174 | 0.623 | 0.49 | 0.258 | 0.156 | 0.176 | 0.474 | 0.466 | 0.297 | 0.175 | 0.163 | 0.28 | 0.531 | 0.212 | 0.287 | 0.348
13 | NCI-H596 | 0.48 | 0.561 | 0.512 | 0.304 | 0.278 | 0.79 | 0.73 | 0.554 | 0.442 | 0.43 | 0.673 | 0.728 | 0.635 | 0.343 | 0.366 | 1.01 | 0.883 | 0.986 | 0.771 | 0.681
14 | NCI-H1755 | 0.67 | 0.727 | 0.706 | 0.718 | 0.427 | 0.97 | 0.992 | 0.981 | 0.767 | 0.618 | 0.562 | 0.589 | 0.593 | 0.507 | 0.39 | 0.481 | 0.415 | 0.45 | 0.483 | 0.277
15 | NCI-H2023 | 0.297 | 0.328 | 0.284 | 0.183 | 0.111 | 0.543 | 0.465 | 0.321 | 0.143 | 0.106 | 0.34 | 0.326 | 0.312 | 0.157 | 0.101 | 0.709 | 0.829 | 0.708 | 0.195 | 0.112
16 | NCI-H2009 | 0.606 | 0.609 | 0.637 | 0.501 | 0.41 | 1.12 | 1.22 | 1.17 | 0.864 | 0.58 | 0.474 | 0.512 | 0.489 | 0.403 | 0.383 | 1.03 | 0.961 | 1 | 0.644 | 0.476
